Patent US12678501B2, “Modulating permeability of the blood cerebrospinal fluid barrier” (MEMORIAL SLOAN-KETTERING CANCER CENTER, priority 2015, dated 2026)

Assays:
MDA231-LeptoM cells = experiment: Leptomeningeal metastasis model, MDA231-LeptoM cells into cisterna magna, BLI; assay type: in vivo, mouse; conditions: vs vehicle; for tumor growth within the leptomeninges (bioluminescent imaging): 2,000 MDA LeptoM cells into cisterna magna
Experimental: (§1) FIG. 11A-11C. C3aR as a therapeutic target in leptomeningeal metastasis. (A) 2,000 MDA231-LeptoM cells were introduced into the cisterna magna on day 0. Mice were treated with 10 mg/kg C3aR agonist (Ag), 10 mg/kg antagonist (Ant) or vehicle (Veh) I.P. twice weekly, tumor cell growth was monitored by BLI. n=10 mice per group. ****p<0.0001 (B) Survival analysis of mice treated in (A). (C) 2,000 MDA231-LeptoM, PC9-LeptoM, HCC1954-LeptoM or LCC-LeptoM cells were introduced into the CSF on day 0 and treated with Veh or Ant as described in (A). n=10 mice per group. BLI on day 14 is illustrated. *p<0.05; **p<0.01; *** p<0.001.
In light of the cancer cell dependence on C3 for growth within the leptomeningeal space, as well as C3aR's importance in maintenance of CP barrier function, we elected to assay C3aR antagonist as well as agonists in models of leptomeningeal metastasis. First, 2,000 MDA LeptoM were injected into the cisterna magna of recipient mice. Next, treatment with either vehicle, C3aR agonist or antagonist was initiated. Tumor growth was followed with bioluminescent imaging FIG. 11A.
(§2) Cells corresponding to each of these models were inoculated into the leptomeningeal space of recipient mice on Day 0. Daily systemic treatment with C3aR antagonist SB290157 began on Day 1. Bioluminescent imaging to quantitate tumor cell growth is shown for each of the models, FIG. 11C. […] In this approach, maintenance of B-CSF-B integrity inhibits cancer cell survival by inhibiting cancer cell access to plasma components, including protein, growth factors and metabolic intermediates.

HCC1954-LeptoM cells = experiment: Leptomeningeal metastasis model, HCC1954-LeptoM cells, BLI; assay type: in vivo, mouse; conditions: systemic treatment from Day 1, BLI on day 14, vs vehicle
Experimental: as §1, §2

PC9-LeptoM cells = experiment: Leptomeningeal metastasis model, PC9-LeptoM cells, BLI; assay type: in vivo, mouse; conditions: systemic treatment from Day 1, BLI on day 14, vs vehicle
Experimental: as §1, §2

LLC-LeptoM cells = experiment: Leptomeningeal metastasis model, LLC-LeptoM cells, BLI; assay type: in vivo, mouse; conditions: systemic treatment from Day 1, BLI on day 14, vs vehicle
Experimental: as §1, §2

[1] = test system: choroid plexus epithelial cells; experiment: Tight junction staining (ZO-1, claudin immunofluorescence) of choroid plexus; conditions: mouse choroid plexus treated 2 hours prior to fixation
Description: (§3) FIG. 7A-7F. C3aR activation alters B-CSF-barrier integrity. (A) Immunofluorescence of mouse choroid plexus for C3aR (red) and the apically expressed SPAK (green). (B) Trans-epithelial resistance in response to C3a in an in vitro model of B-CSF-B employing human choroid plexus epithelial cells (HuCPEpi). (C) Conditioned medium from MDA231 Parental cells (green) supplemented with recombinant mouse C3a (open circles) or vehicle (closed circles) was used to treat the monolayer prior to TEER measurements. (D) Conditioned medium from MDA231 LeptoM cells was not treated with antibody (closed circle), or immunodepleted with anti-C3 (open circles) or IgG control (black squares) prior to TEER measurements. (E) Mice (C3aR^+/+ or ^−/−) were parenterally pretreated with recombinant mouse C3a or vehicle prior to intracardiac infusion of mixed fluorescently labeled dextrans. 30 minutes later, CSF and blood were sampled and analyzed by fluorimetry. In the bar graphs, for each dextran size, fluorescence in animals treated with rmC3a is represented by the bar on the right (vehicle represented by the bar on the left). […]
(§4) The passage of larger molecules was assessed through the use of fluorescently labeled Dextran passage in vivo. […] Thirty minutes after this treatment, CSF was sampled by cisternal tap, and presence of the derivatized dextran was assayed by fluorescence. […]

[2] = test system: human choroid plexus epithelial cells (HuCPEpi); experiment: Trans-epithelial electrical resistance (TEER) in in vitro model of B-CSF-B; assay type: cell-based; conditions: HuCPEpithelial cells on laminin-coated transwells, after addition of recombinant C3a
Description: FIG. 7A-7F. C3aR activation alters B-CSF-barrier integrity. (A) Immunofluorescence of mouse choroid plexus for C3aR (red) and the apically expressed SPAK (green). (B) Trans-epithelial resistance in response to C3a in an in vitro model of B-CSF-B employing human choroid plexus epithelial cells (HuCPEpi). (C) Conditioned medium from MDA231 Parental cells (green) supplemented with recombinant mouse C3a (open circles) or vehicle (closed circles) was used to treat the monolayer prior to TEER measurements. (D) Conditioned medium from MDA231 LeptoM cells was not treated with antibody (closed circle), or immunodepleted with anti-C3 (open circles) or IgG control (black squares) prior to TEER measurements. (E) Mice (C3aR^+/+ or ^−/−) were parenterally pretreated with recombinant mouse C3a or vehicle prior to intracardiac infusion of mixed fluorescently labeled dextrans. 30 minutes later, CSF and blood were sampled and analyzed by fluorimetry. In the bar graphs, for each dextran size, fluorescence in animals treated with rmC3a is represented by the bar on the right (vehicle represented by the bar on the left). (F) Mouse choroid plexus treated with C3a or vehicle for 2 hours prior to fixation and staining for ZO-1 and Claudin.
To address the hypothesis that C3aR might function similarly in the choroid plexus, we first established the presence of C3aR on choroid plexus epithelium (FIG. 7A). […]

C3aR = biological target: T1, C3aR (Mus musculus, UniProt O09047); experiment: Passage of fluorescently labeled dextrans from blood to CSF in vivo; conditions: dextrans of 40 kDa and smaller; CSF sampled 30 minutes after intracardiac dextran; C3aR-dependent (wild type vs knockout mice)
T1 construct: from tissue; host or cells: living mice (in vivo)
T1 sequence (O09047 1-477): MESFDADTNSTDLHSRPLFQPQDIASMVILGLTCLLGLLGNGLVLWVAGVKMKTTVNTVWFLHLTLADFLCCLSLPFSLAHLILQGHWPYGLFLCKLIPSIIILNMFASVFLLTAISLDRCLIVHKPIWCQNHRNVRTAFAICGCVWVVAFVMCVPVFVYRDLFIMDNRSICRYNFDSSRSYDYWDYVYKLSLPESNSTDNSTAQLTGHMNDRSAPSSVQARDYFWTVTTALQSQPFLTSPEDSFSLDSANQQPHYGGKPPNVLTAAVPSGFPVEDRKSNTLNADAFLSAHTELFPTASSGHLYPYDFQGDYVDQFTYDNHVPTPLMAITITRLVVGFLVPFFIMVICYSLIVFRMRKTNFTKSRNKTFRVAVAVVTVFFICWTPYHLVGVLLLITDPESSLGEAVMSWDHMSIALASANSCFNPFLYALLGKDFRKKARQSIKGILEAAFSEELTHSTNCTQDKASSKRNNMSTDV
Description: as §3, §4

[3] = Amphiregulin ELISA in CSF and plasma after parenteral C3a; assay type: in vivo; conditions: mouse models, after parenteral administration
Description: FIG. 10A-10D. C3 conditioned CSF by opening the blood-CSF-barrier. (A) Commercial dot-blot array was employed to measure proteins present in CSF of two patients without leptomeningeal metastasis, who later developed leptomeningeal metastasis. […] (B) LLC-LeptoM cells instilled into the cisterna magna of C3aR wild-type (^+/+) or knock-out (^−/−) syngenic mice. Tumor growth was monitored by BLI. (C) ELISA for amphiregulin of CSF from suspected of leptomeningeal metastasis. Final clinical diagnosis is indicated. (D) Mice were parenterally pretreated with recombinant mouse […] or vehicle (green) as described in FIG. 7E. Amphiregulin was measured by ELISA in CSF and plasma.
Leptomeningeal metastasis alters the composition of the CSF (FIG. 10A), including the growth factor amphiregulin (FIG. 10C). Cancer cell growth within the leptomeningeal space is improved in the presence of the C3aR in our models of leptomeningeal metastasis (FIG. 10B) after parenteral administration of C3a, serum amphiregulin is elevated within the CSF in mouse models.

Compound	tumor growth within the leptomeninges (bioluminescent imaging) (MDA231-LeptoM cells; 10 mg/kg I.P. twice weekly)	leptomeningeal tumor growth (BLI) (HCC1954-LeptoM cells)	leptomeningeal tumor growth (BLI) (PC9-LeptoM cells)	leptomeningeal tumor growth (BLI) (MDA231-LeptoM cells; MDA231 model, systemic treatment from Day 1, BLI on day 14)	survival (MDA231-LeptoM cells; MDA LeptoM model, 10 mg/kg I.P. twice weekly)	leptomeningeal tumor growth (BLI) (LLC-LeptoM cells)	tight junctions between choroid plexus epithelial cells (claudin immunofluorescence) [1]	resistance across the monolayer (TEER) [2]	passage of dextrans from blood to CSF (C3aR)	amphiregulin within the CSF [3]
O=C(NC1CCN(C(=O)CCc2cccnc2)CC1)C(c1ccccc1)C1CCCCC1 (stereo not drawn) [C3aR agonist, α-cyclohexyl-N-[1-[1-oxo-3-(3-pyridinyl)propyl]-4-piperidinyl]-benzeneacetamide]	accelerated	–	–	–	–	–	–	–	–	–
N=C(N)NCCC[C@H](NC(=O)COCC(c1ccccc1)c1ccccc1)C(=O)O [SB290157, N2-[2-(2,2-diphenylethoxy)acetyl]-L-arginine, 2,2,2-trifluoroacetate]	slowed	less leptomeningeal tumor growth	less leptomeningeal tumor growth	less leptomeningeal tumor growth	survival benefit	less leptomeningeal tumor growth	–	–	–	–
recombinant C3a: recombinant C3a, hydrolysis fragment of complement C3, ligand of the C3aR receptor	–	–	–	–	–	–	disorganization of tight junctions	reduced	increased	elevated
